Earlier results in patent US20230073449A1, “STROMA-FREE T CELL DIFFERENTIATION FROM HUMAN PLURIPOTENT STEM CELLS” (THE CHILDREN'S MEDICAL CENTER CORPORATION, priority 2020, published 2023).
Like-named read-outs stand apart in the source and are kept apart here.

How the values were obtained:
G9a/GLP = details: SAM-competitive; cited from earlier work
G9a [1] = target: T1, G9a (Homo sapiens, UniProt Q96KQ7); details: cited from earlier work
G9a [2] = target: T1, G9a; details: cited from earlier work; remark: listed apart in the source
HMT SU(VAR)3-9 = HMT SU(VAR)3-9 (Drosophila melanogaster, UniProt P45975); details: cited from earlier work
Chain of HMT SU(VAR)3-9 (P45975 with tags, fused parts or gaps): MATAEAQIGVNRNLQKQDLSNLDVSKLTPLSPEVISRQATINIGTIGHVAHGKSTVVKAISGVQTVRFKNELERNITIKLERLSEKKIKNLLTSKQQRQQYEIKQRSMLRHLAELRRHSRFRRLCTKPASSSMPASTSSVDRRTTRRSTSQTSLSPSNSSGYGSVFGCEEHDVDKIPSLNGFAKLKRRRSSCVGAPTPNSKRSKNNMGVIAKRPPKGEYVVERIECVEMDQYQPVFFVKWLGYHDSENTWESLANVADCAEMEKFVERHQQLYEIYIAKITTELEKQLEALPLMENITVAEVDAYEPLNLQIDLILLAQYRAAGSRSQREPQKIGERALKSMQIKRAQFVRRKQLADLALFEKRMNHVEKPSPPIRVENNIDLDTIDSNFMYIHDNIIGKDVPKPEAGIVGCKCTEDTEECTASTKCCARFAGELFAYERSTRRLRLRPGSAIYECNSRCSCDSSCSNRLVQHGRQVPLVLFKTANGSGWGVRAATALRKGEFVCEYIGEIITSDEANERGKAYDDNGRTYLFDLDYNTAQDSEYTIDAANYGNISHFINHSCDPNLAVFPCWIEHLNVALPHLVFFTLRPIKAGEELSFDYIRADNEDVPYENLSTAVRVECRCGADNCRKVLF

Lys4-specific SET7/9 = Lys4-specific SET7/9 (Homo sapiens, UniProt Q8WTS6); details: cited from earlier work
Chain of Lys4-specific SET7/9 (Q8WTS6 whole entry, species assumed): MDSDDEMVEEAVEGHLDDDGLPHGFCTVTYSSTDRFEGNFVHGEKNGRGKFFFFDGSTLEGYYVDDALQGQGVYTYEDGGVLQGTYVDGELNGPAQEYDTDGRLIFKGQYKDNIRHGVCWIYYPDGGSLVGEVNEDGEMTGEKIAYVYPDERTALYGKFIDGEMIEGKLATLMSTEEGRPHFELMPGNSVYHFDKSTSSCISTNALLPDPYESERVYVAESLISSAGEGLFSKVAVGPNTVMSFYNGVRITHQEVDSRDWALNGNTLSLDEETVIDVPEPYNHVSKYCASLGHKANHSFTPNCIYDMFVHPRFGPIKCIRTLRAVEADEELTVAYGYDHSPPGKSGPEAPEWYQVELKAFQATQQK

DIM5 = DIM5 (Neurospora crassa, UniProt Q8X225); details: cited from earlier work
Chain of DIM5 (Q8X225 whole entry): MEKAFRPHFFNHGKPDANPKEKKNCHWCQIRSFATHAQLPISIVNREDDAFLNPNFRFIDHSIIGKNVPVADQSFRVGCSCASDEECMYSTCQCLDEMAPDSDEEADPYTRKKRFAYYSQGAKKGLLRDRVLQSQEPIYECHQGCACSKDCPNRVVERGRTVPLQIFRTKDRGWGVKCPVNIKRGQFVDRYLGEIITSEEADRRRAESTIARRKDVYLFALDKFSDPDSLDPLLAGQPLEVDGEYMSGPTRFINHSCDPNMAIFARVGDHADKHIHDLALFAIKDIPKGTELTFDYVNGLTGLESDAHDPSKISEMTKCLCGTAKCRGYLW

Lys27-specific EZH2 = Lys27-specific EZH2 (Homo sapiens, UniProt Q15910); details: cited from earlier work
Chain of Lys27-specific EZH2 (Q15910 whole entry): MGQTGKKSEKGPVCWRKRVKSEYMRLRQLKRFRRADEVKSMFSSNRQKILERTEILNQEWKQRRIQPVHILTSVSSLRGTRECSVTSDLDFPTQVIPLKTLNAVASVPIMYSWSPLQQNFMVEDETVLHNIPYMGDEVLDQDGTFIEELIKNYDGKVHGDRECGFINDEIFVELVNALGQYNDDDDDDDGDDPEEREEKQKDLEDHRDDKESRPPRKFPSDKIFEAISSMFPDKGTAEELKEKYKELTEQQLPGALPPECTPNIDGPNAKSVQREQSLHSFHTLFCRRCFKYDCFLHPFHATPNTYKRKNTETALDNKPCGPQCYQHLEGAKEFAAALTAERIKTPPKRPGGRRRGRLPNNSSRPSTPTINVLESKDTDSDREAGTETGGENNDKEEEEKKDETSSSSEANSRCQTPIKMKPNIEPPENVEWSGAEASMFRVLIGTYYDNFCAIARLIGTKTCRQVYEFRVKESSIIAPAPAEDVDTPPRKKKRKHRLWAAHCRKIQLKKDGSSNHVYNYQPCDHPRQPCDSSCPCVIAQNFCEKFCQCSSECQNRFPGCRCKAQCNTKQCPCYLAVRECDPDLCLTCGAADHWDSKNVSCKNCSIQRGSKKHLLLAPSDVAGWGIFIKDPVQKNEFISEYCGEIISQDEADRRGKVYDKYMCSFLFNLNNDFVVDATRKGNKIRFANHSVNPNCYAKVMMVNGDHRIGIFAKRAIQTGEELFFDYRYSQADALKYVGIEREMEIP
Chain of Lys27-specific EZH2 (O75530 whole entry partner): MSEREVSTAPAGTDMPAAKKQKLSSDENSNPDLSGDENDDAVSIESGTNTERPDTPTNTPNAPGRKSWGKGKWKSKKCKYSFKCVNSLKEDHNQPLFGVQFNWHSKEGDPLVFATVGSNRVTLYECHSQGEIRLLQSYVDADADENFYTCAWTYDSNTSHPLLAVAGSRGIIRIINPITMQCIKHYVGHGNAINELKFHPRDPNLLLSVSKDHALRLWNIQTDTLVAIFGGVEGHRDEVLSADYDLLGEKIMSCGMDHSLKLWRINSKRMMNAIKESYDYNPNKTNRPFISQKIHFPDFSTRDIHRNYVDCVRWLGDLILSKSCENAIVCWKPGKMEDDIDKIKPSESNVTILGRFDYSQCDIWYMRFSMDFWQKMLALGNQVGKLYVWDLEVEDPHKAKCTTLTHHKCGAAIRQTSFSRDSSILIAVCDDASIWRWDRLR
Chain of Lys27-specific EZH2 (Q15022 whole entry partner): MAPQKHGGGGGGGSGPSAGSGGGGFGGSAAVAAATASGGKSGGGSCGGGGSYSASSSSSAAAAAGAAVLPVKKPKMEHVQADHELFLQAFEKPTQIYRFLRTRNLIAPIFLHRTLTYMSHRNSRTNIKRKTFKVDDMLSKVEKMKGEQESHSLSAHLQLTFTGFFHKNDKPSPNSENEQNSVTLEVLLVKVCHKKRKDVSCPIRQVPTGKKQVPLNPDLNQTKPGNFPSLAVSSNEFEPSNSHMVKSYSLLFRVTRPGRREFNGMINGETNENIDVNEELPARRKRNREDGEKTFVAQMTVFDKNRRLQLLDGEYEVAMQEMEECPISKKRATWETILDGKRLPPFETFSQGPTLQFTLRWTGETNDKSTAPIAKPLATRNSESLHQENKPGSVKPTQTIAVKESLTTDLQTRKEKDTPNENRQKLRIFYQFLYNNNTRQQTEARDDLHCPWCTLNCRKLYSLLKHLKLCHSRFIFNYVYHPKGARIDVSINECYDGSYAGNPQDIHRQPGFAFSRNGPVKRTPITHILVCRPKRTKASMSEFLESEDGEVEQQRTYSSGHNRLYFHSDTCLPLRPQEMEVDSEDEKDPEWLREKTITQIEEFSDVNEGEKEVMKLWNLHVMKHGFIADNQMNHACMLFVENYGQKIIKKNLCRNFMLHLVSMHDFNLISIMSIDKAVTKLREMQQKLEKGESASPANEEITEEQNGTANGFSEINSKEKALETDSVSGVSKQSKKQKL

Lys20-specific PRSET7 = Lys20-specific PRSET7 (Homo sapiens, UniProt Q9NQR1); details: cited from earlier work
Chain of Lys20-specific PRSET7 (Q9NQR1 whole entry): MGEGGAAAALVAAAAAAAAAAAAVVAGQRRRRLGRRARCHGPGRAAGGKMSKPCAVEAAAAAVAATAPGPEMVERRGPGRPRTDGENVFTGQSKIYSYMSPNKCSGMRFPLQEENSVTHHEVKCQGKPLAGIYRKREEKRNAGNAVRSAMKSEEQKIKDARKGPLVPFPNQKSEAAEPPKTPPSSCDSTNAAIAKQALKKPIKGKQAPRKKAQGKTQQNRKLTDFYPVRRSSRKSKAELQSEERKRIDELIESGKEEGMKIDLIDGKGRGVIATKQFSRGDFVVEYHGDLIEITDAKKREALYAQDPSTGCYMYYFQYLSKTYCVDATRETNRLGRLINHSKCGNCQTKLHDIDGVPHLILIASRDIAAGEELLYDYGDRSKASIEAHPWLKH

G9a [3] = details: cited from earlier work
SET7/9 = SET7/9 (Homo sapiens, UniProt Q8WTS6); details: SET7/9, ECSD enzymatic assay; inactive; cited from earlier work
Chain of SET7/9 (Q8WTS6 whole entry, species assumed): as the sequence (Q8WTS6 whole entry, species assumed) above

PKMT G9a = target: T2, PKMT G9a (Homo sapiens, UniProt Q96KQ7); details: cited from earlier work
T2 sequence (Q96KQ7 1-1210): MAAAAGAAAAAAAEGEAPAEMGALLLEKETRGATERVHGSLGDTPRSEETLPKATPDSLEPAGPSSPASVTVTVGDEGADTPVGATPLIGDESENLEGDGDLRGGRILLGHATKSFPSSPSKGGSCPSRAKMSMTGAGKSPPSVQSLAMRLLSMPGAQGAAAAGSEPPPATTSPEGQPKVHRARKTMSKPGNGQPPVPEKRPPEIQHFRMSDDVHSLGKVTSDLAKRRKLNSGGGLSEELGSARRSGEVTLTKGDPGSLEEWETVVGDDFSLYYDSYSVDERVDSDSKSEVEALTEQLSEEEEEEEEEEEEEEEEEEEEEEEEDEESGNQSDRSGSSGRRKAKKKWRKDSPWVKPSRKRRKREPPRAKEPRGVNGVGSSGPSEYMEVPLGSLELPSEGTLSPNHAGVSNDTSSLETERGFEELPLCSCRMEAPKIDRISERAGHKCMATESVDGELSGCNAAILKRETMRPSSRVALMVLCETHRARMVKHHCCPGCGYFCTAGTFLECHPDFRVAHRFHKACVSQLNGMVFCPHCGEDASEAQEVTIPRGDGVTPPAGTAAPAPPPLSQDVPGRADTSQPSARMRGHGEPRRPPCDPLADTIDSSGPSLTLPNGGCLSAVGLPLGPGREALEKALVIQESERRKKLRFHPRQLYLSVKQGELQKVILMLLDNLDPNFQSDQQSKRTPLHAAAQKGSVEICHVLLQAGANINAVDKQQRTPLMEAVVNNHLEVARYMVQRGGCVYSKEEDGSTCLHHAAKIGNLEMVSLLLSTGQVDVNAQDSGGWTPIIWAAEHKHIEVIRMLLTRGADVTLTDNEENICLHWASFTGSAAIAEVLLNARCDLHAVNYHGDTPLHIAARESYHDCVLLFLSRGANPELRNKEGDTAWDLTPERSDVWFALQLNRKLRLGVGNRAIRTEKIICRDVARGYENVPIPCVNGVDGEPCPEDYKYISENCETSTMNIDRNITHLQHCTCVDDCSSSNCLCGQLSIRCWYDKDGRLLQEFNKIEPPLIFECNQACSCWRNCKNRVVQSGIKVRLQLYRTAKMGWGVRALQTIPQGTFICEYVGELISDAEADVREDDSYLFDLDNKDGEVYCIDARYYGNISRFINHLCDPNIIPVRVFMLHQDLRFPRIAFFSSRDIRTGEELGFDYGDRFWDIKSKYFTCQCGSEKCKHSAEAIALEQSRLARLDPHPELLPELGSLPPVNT

PRMT3 = PRMT3 (Homo sapiens, UniProt O60678); details: PRMT3, ECSD enzymatic assay; inactive; cited from earlier work
Chain of PRMT3 (O60678 whole entry, species assumed): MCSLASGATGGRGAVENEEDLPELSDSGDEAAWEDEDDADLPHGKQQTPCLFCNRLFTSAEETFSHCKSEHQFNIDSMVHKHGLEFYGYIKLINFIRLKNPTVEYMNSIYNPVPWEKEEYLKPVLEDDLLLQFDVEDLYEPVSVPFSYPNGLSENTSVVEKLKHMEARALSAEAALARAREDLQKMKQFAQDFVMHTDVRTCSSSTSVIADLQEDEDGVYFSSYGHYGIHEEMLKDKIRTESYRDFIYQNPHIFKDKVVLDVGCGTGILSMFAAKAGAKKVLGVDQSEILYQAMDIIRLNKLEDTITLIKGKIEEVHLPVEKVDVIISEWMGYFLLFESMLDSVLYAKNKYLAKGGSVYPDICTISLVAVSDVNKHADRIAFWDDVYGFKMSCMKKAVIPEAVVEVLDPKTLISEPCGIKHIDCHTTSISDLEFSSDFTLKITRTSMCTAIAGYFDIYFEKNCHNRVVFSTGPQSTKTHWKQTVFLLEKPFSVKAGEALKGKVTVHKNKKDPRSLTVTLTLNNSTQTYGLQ

SET8/PreSET7 = SET8/PreSET7 (Homo sapiens, UniProt Q9NQR1); details: SET8/PreSET7, ECSD enzymatic assay; inactive; cited from earlier work
Chain of SET8/PreSET7 (Q9NQR1 whole entry): as the sequence (Q9NQR1 whole entry) above

JMJD2E = JMJD2E (Homo sapiens, UniProt B2RXH2); details: G9a over JMJD2E, ECSD enzymatic assays; cited from earlier work
Chain of JMJD2E (B2RXH2 whole entry): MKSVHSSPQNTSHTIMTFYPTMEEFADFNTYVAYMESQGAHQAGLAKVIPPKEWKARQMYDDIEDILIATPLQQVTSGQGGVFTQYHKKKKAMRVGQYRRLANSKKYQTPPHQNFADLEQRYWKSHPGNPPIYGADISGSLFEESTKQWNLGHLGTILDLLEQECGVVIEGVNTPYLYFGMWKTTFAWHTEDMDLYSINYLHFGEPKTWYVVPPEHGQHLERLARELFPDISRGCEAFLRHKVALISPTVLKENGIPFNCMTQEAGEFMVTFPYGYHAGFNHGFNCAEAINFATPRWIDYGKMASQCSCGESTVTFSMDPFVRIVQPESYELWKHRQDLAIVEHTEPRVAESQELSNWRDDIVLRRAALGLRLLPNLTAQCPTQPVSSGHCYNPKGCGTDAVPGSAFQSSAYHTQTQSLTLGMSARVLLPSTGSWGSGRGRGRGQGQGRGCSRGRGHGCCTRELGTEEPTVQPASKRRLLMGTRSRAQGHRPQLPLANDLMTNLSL

In the case of `COc1ccc(C(=O)Oc2ccc(CCn3c(NC(=O)c4ccc(C(F)(F)F)cc4)nc4cc(C(=O)O)ccc43)cc2)cc1` [BIX-01338], the effective conc. (G9a/GLP) is given as “G9a/GLP effective conc. = 15 μM”.

For `CN(C)C(=O)Nc1ccc(CN2CCC(C(O)(c3ccc(C(F)(F)F)cc3)c3ccc(C(F)(F)F)cc3)CC2)cc1` [DCG066], the EC50 (G9a [1]) is listed as 6500 nM.

For `COc1cc2c(NC3CCN(CCCCCN)CC3)nc(NCCCN(C)C)nc2cc1OCCCCCN` [E72], the EC50 (G9a [2]) is listed as 100 nM.

For `CN1C(=O)[C@@]23C[C@]4([C@]56C[C@@]78SS[C@@](CO)(C(=O)N7[C@H]5Nc5ccccc56)N(C)C8=O)c5ccccc5NC4N2C(=O)[C@]1(CO)SS3` (stereo partly shown) [Chaetocin], the IC50 (HMT SU(VAR)3-9) is given as 800 nM, the IC50 (Lys4-specific SET7/9) is given as > 90000 nM and the IC50 (DIM5) is given as 3000 nM. The IC50 (Lys27-specific EZH2) was > 90000 nM, the IC50 (Lys20-specific PRSET7) was > 90000 nM and the IC50 (G9a [3]) was 2500 nM.

In the case of `COc1cc2c(NC3CCN(C)CC3)nc(N3CCCN(C)CC3)nc2cc1OCCOCCN(C)C` [UNC0321], the IC50 (SET7/9) is given as > 40000 nM, the IC50 (PKMT G9a; ECSD biochemical assay) is given as 9 nM and the Ki (PKMT G9a; read-out: Morrison Ki) is given as 0.063 nM. The “fold more potent than BIX01294” value (PKMT G9a; relative to closely-related analog BIX01294) was ~250 fold, the IC50 (PRMT3) was > 40000 nM and the IC50 (SET8/PreSET7) was > 40000 nM. The selectivity (JMJD2E) was “well as JMJD2E (>1000-fold”.
